Several values for one entry are separate records, joined by “and”; a condition that tells them apart may be missing. Equal values may be shown once. Entries after “also recorded” stand apart in the source; their conditions may differ. Read-outs that look alike come from different tables or passages of the source.
Assays:
[1] = test system: MDCK, canine kidney epithelial cells
[2] = test system: HFF, human foreskin fibroblast
[3] = test system: Salmonella typhimurium strains TA98, TA100, TA1535, and TA1537; assay: Plate incorporation mutation assay, S. typhimurium; conditions: with and without rat liver S-9; up to 5000 mg/plate, 5000 μg/plate
Description: L-dC was tested for its potential to cause mutation at the histidine operon of Salmonella typhimurium strains TA98, TA100, TA1535, and TA1537 and at the tryptophan opeton of Escherichia coli strain WP2uvrA. L-dC at concentrations of […] plus positive and negative controls were tested. […] After incubation for approximately 68 hours, L-dC and controls were evaluated for the number of revertants per plate and integrity of the background microcolony lawn.

Measles = assay: Antiviral panel: Measles (CV-1); type: cell-based
HCMV = assay: Antiviral panel: HCMV (HFF); type: cell-based
[4] = rat
Description: The drug was detected and the concentration determined in plasma and urine using a reverse-phase HPLC technique. The data were analyzed by a non-modeling mathematical method and the AUCs derived by the linear trapezoidal rule.

[5] = test system: KB, human nasopharyngeal carcinoma
[6] = Bioavailability of the prodrugs of L-dC in monkeys, with and without L-dT; conditions: oral
Rhinovirus type 5 = assay: Antiviral panel: Rhinovirus type 5 (KB); type: cell-based
HBV = assay: Anti-HBV activity in HBV-expressing 2.2.15 cells (HBV DNA reduction); conditions: 2.2.15 cells
[7] = test system: Daudi, Burkitt's B-cell lymphoma
cultured CHO cells = assay: Chromosomal aberration assay; type: cell-based, Chinese hamster; conditions: with and without metabolic activation, 5000 μg/mL
Influenza A/H3N2 = assay: Antiviral panel: Influenza A/H3N2 (MDCK); type: cell-based
[8] = type: in vivo, cynomologus monkey
Description: The pharmacokinetics of L-dC following IV and oral administration of L-dC to cynomologus monkeys was determined. […] Following a six week washout period, the same three monkeys received an identical oral dose of L-dC. Blood samples for pharmacokinetic analysis were collected pre-dose and at 0.25, 0.5, 1, 2, 3, 6, 8 and 24 hours after dosing. Urine samples for pharmacokinetic analyses were collected via pan catch pre-dose and over the following intervals post-dose: 0-2, […], 4-8, and 8-12 hours, and then over 12-hour intervals thereafter through 336 hours post-dose. The drug was detected and the concentration determined using a reverse-phase high-performance liquid chromatography technique.

HSV-2 = assay: Antiviral panel: HSV-2 (HFF); type: cell-based
[9] = test system: CV-1, African green monkey kidney fibroblast cells
[10] = rat, in vivo
bone marrow cells = assay: Mouse micronucleus assay; type: in vivo; conditions: single oral dose up to 2000 mg/kg, male and female mice
Description: L-dC was tested for its potential to induce micronucleated polychromatic erythrocytes (MPCE) in the bone marrow cells of male and female mice. L-dC at concentrations of 500, 1000, and 2000 mg/kg and positive and negative controls were tested. Study […] as a single dose. Two harvests approximately 24 and 48 hours after L-dC or negative control administration were performed, and a single harvest approximately 24 hours after positive control administration was performed. Five male and five female mice per dose group per harvest time were used. The percentage of polychromatic erythrocytes (PCE) and MPCE frequency were determined for each timepoint.

HepG2 cells = assay: Mitochondrial toxicity assay in HepG2 cells; type: cell-based, human
[11] = test system: MA-104, rhesus monkey kidney epithelial cells
[12] = human
RSV type A = assay: Antiviral panel: RSV type A (MA-104); type: cell-based
Influenza A/H1N1 = assay: Antiviral panel: Influenza A/H1N1 (MDCK); type: cell-based
WHV = assay: Woodchuck model of chronic hepatitis B infection, 12 weeks oral; conditions: 1 mg/kg/day orally, woodchucks
Description: WHV DNA and body weight were measured on Days 0, 1, 3, 7, 14, 21, 28, 42, 56, and 84 as well as on post-treatment Days 7, 14, 21, 28, 42, 56, 70, and 84. WHV DNA levels were determined by quantitative PCR. Appropriate samples for hematology, serum chemistries, WHV serology, and liver biopsy were collected pretreatment and on Day 84.

Parainfluenza type 3 = assay: Antiviral panel: Parainfluenza type 3 (MA-104); type: cell-based
[13] = L-dC 10 mg/kg IV, cynomologus monkey
[14] = L-dC 10 mg/kg oral, cynomologus monkey
[15] = HepG2, L-dC 10, FIAU 10, ZDV 50, ddC 1 μM

Nc1ccn([C@@H]2C[C@@H](O)[C@H](CO)O2)c(=O)n1 [L-dC, 2′-deoxy-β-L-cytidine]
CC50 [1]: > 100 µM | CC50 [2]: >100 µg/mL | mutagenicity [3]: no evidence of mutagenicity; also recorded: not mutagenic | EC50 (Measles): > 100 µM | EC50 (HCMV): >100 µg/mL | AUC0.25→8 (table head AUC0-25-28) ([4]; L-dC 10 mg/kg IV): 30100 µM·h | CL ([4]; L-dC 10 mg/kg IV): 24 mL/min/kg | Tmax ([4]; L-dC 10 mg/kg IV): 0 h | Vd ([4]; L-dC 10 mg/kg IV): 2.53 L/kg | t1/2 ([4]; L-dC 10 mg/kg IV): 1.21 h | oral bioavailability F ([4]; L-dC 10 mg/kg oral vs IV): 15.4% | AUC0.25→8 (table head AUC0-25-28) ([4]; L-dC 10 mg/kg oral): 4770 µM·h | Tmax ([4]; L-dC 10 mg/kg oral): 1.0 h | t1/2 ([4]; L-dC 10 mg/kg oral): 2.52 h | CC50 [5]: > 100 µM | % BA w/ L-dT ([6]; coadministered with 10 mg/kg L-dT): 11.9 ± 1.7% | % BA (bioavailability of L-dC) ([6]; estimated relative to AUC of L-dC (oral dose)): 16.4 ± 5.0% | EC50 (Rhinovirus type 5): > 100 µM | EC90 (HBV; 10-fold reduction of HBV virion DNA levels (Table 25)): 1.1 ± 0.1 µM | EC50 (HBV; read-out: EC50 for reduction in extracellular HBV DNA): 0.24 µM | EC50 (HBV; read-out: EC50 for reduction of intracellular HBV DNA replicative intermediates (RI)): 0.51 µM and 0.5 µM | EC90 (HBV; read-out: EC90 against HBV replication (extracellular HBV DNA)): 1.07 µM and 1.06 µM | CC50 [7]: >50 µg/mL | chromosomal aberrations (cultured CHO cells): no evidence of chromosomal aberrations | EC50 (Influenza A/H3N2): > 100 µM | renal clearance as share of total L-dC clearance ([8]; IV): 87% | share of the dose recovered in the urine, by analyte ([8]; IV L-dC, analyte = label): 94% | administered dose recovered in urine ([8]; IV, within 2 hours): 71% | CL [8, 13]: 8.83 mL/min/kg | CLR [8, 13]: 7.67 mL/min/kg | Cmax [8, 13]: 95.7 µM | Tmax [8, 13]: 0 h | Vd [8, 13]: 1.22 L/kg | t1/2 [8, 13]: 1.59 h | oral bioavailability F ([8]; L-dC 10 mg/kg oral vs IV, cynomologus monkey): 16.4% | Cmax [8, 14]: 3.38 µM | Tmax [8, 14]: 2.33 h | terminal t1/2 [8, 14]: 2.95 h | share of drug excreted / recovered dose in urine, by analyte ([8]; oral L-dC, analyte = label): ~69% | administered oral dose recovered in urine ([8]; after 72 hours): 15.5%±8% | administered oral dose recovered in urine ([8]; within 12 hours): Approximately 8.5% | EC50 (HSV-2): >100 µg/mL | CC50 [9]: > 100 µM | Tlast [10]: 24 h | estimated terminal phase half-lives ([10]; 1000 mg/kg): 9 to 17 h | estimated terminal phase half-lives ([10]; 2000 mg/kg): 6 to 8 h | AUClast ([10]; po, 2000 mg/kg/day): 461 µg·h/mL | micronucleus assay result (bone marrow cells): negative; also recorded: not clastogenic | effect on mitochondrial DNA content (HepG2 cells; HepG2, 14 days, concentrations up to 0.10 μM): no effect | CC50 (HepG2 cells; HepG2, after 14 days of treatment): > 2000 µM | L-Lactate, % of Control (HepG2 cells; [15]): 101 ± 2 % of Control | Lipid Droplet Formation (HepG2 cells; [15]): negative | mtDNA, % of Control (HepG2 cells; [15]): 107 ± 8 % of Control | Mitochondrial Morphology (HepG2 cells; HepG2, L-dC 10, FIAU 10, ZDV 50, ddC 1 μM, electron microscopy): No discernible changes; also recorded: normal | CC50 [11]: > 100 µM | plasma protein binding [12]: 19.7%±5.9% | EC50 (RSV type A): > 100 µM | EC50 (Influenza A/H1N1): > 100 µM | end-of-treatment liver biopsy histomorphology (WHV): no histomorphological evidence of fatty changes; also recorded: no evidence of fatty change | EC50 (Parainfluenza type 3): > 100 µM
